Peptide text beside a SMILES is read from it.

The target of this test is T1, VLA4 (Homo sapiens, UniProt P05556+P13612).
T1 construct: endogenous in cells; host or cells: Ramos cells
T1 sequence (P13612 34-1032): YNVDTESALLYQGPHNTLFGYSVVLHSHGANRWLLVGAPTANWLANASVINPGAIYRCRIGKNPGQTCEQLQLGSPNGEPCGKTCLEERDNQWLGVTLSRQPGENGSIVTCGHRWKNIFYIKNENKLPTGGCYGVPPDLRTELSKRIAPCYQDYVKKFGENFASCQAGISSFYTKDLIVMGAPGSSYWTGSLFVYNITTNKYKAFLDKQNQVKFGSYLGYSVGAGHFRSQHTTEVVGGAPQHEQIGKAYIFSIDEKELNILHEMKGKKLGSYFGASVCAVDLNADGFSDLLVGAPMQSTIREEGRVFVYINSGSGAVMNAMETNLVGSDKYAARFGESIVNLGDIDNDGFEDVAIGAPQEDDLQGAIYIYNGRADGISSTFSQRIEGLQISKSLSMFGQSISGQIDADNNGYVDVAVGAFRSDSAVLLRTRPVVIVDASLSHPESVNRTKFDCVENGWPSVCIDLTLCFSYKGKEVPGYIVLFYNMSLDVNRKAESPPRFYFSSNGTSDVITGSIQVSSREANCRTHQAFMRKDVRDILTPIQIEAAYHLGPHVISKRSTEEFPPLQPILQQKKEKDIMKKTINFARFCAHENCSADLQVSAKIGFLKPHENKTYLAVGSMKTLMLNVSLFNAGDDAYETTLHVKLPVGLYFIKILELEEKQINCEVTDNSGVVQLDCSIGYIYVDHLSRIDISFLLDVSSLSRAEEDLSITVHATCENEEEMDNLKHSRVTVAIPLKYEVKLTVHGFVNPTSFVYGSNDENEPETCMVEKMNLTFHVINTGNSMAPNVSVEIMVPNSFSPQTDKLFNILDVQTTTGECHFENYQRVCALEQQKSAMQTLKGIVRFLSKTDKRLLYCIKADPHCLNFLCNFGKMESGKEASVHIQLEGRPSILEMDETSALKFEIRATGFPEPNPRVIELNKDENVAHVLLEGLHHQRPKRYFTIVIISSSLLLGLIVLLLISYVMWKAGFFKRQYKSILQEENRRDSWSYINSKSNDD
T1 sequence (P05556 21-798): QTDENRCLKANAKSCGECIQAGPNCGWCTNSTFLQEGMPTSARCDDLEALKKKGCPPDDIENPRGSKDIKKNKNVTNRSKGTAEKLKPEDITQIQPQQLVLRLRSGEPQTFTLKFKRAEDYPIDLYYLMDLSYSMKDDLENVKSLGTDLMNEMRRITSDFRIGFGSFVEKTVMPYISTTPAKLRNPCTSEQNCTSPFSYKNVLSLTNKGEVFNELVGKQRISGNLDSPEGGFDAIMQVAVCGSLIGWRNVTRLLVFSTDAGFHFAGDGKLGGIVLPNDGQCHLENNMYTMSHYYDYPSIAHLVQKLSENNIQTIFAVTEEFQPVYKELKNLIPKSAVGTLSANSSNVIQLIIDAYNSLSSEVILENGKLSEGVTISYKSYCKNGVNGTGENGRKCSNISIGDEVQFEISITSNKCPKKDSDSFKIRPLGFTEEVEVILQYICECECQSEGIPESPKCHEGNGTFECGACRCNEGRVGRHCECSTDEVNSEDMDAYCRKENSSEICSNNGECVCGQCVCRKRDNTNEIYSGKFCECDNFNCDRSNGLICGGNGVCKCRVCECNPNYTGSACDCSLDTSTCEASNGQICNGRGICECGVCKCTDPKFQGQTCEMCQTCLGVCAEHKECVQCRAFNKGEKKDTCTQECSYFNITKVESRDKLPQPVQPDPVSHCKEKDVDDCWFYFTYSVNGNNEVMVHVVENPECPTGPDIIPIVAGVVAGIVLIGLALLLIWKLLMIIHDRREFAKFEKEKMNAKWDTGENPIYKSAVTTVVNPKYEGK
Description: Inhibition of VLA4-dependent adhesion of Ramos cells to BSA-CS1. Type of test: cell-based. As to conditions: Ramos cells, BSA-CS1 coated wells, 2 mM MnCl2, 30 minutes at room temperature; read-out: IC50. The source says: For example, the cell adhesion inhibitory activity of these compounds may be measured by determining the concentration of inhibitor required to block the binding of VLA-4-expressing cells to fibronectin- or CS1-coated plates. In this assay microtiter wells are coated with either fibronectin (containing the CS1-sequence) or CS-1. If CS-1 is used, it must be conjugated to a carrier protein, such as bovine serum albumin, in order to bind to the wells. Once the wells are coated, varying concentrations of the test compound are then added together with appropriately labelled, VLA-4-expressing cells. Alternatively, the test compound may be added first and allowed to incubate with the coated wells prior to the addition of the cells. The cells are allowed to incubate in the wells for at least 30 minutes. Following incubation, the wells are emptied and washed. Inhibition of binding is measured by quantitating the fluorescence or radioactivity bound to the plate for each of the various concentrations of test compound, as well as for controls containing no test compound.
VLA-4-expressing cells that may be utilized in this assay include Ramos cells, Jurkat cells, A375 melanoma cells, as well as human peripheral blood lymophocytes (PBLs). The cells used in this assay may be fluorescently or radioactively labelled.
This assay was used to assess the potency of VLA4-directed inhibitory compounds of this invention. 1.
We dissolved BSA-SMCC (Pierce Chemical, Rockford, Ill.; Catalog #77115) in H2O at a concentration of 10 mg/mL. [SEQ ID NO:4]: […](“Cys-Tyr-CS1 peptide”), which we synthesized by conventional solid phase chemistry and purified by HPLC, was dissolved in 10 mM HEPES pH 5, 50 mM NaCl and 0.1 mM EDTA also at a concentration of 10 mg/mL. We then mixed 500 μL of BSA-SMCC, 250 μL of Cys-Tyr-CS1 peptide and 75 μL of 1 mM HEPES pH 7.5 and allowed the conjugation reaction to proceed for 30 minutes. We stopped the reaction by adding 1 μL of beta-mercaptoethanol. Samples were analyzed for cross-linking by SDS-PAGE.
We coated the wells of a Linbro titertek polystyrene 96-well flat bottom plate (Flow Laboratories, Maclean, Va.; catalog #76-231-05) with 100 μL of the above-described BSA-CS1 solution diluted to 1 μg/mL in 0.05 M NaHCO3 (15 mM NaHCO3, 35 mM Na2CO3) pH 9.2. Some wells were not coated with CS1 in order to assess non-specific cell binding (NSB). The plate was then incubated overnight at 4° C.
Following this incubation, the contents of the wells were removed by inverting and blotting the plate. All of the wells were then blocked with 100 μL of 1% BSA in PBS, 0.02% NaN3, for a minimum of one hour at room temperature.
Ramos cells are grown, maintained and labelled in RPMI 1640 culture medium containing 1% BSA. Just prior to running the assay, we added 2′, 7′-bis-(2-carboxyethyl)-5(and -6)carboxyfluorescein acetoxymethyl ester (“BCECF-AM”; Molecular Probes Inc., Eugene, Oregon; catalog #B-1150) to a final concentration of 2 μM to a culture of Ramos cells (4×10^6 cells/mL). We incubated the cells for 20 minutes at 37° C.
Following labelling, the cells were washed twice in assay buffer (24 mM TRIS, 137 mM NaCl, 2.7 mM KCl, pH 7.4, containing 0.1 BSA and 2mM glucose) to remove any cations originating from the culture medium. The cells were then resuspended in assay buffer to 4×10^6 cells/mL and 2 mM MnCl2 was added to upregulate VLA4 on the surface of the cells.
Immediately prior to running the assay, we removed the BSA blocking solution from the 96-well plates and washed the wells with 100 μL of assay buffer. We then added to each well 25 μL of test cell adhesion inhibitory compound at 2×the final concentration and 25 μL of the labelled Ramos cells. […] Each concentration of compound was tested in triplicate. The compound and cells are allowed to incubate for 30 minutes at room temperature.
Regarding `CC(C)CNC(=O)[C@H](CC(=O)O)NC(=O)[C@H](CC(C)C)NC(=O)c1cc2ccccc2cn1` [Compound 157], the IC50 (in general, the concentration needed to halve the response being measured) was 0.05 to 10 µM.

On to `O=C(O)CNC(=O)[C@@H]1CCCN1C(=O)[C@H](CC(=O)O)NC(=O)Cc1ccccc1` [Compound 136] (HELM PEPTIDE1{[O=C(Cc1ccccc1)[*:2]].D.P.G}$$$$V2.0), for which the IC50 was > 10 µM.

As to `CC(C)CNC(=O)[C@@H](CC(=O)O)NC(=O)[C@H](CC(C)C)NC(=O)CCc1ccc(O)cc1` [Compound 15], the IC50 was > 10 µM.

On to `Cc1ccccc1NC(=O)Nc1ccc(CC(=O)N[C@@H](CC(C)C)C(=O)N[C@@H](CCC(=O)O)C(=O)N[C@@H](CC(=O)O)C(N)=O)cc1` [Compound 310], for which the IC50 is < 0.05 µM.

Consider `CC(C)CC(NC(=O)Cc1ccccc1)C(=O)NC(CC(=O)O)C(=O)NC(C(=O)N1CCCCC1C(=O)O)C(C)C` (stereo not shown) [Compound 42], for which the 50% inhibitory concentration (IC50) is 0.05 to 10 µM.

With `COC(=O)[C@@H](NC(=O)[C@H](CC(=O)O)N(C)C(=O)[C@H](CC(C)C)NC(=O)CCc1ccc(O)cc1)C(C)C` [Compound 22], the IC50 is > 10 µM.

For the compound `Cc1ccccc1NC(=O)Nc1ccc(CC(=O)N[C@H](C(=O)N[C@@H](CC(=O)O)C(=O)N[C@@H](CC(=O)O)C(N)=O)[C@@H](C)O)cc1` [Compound 252], the half-inhibitory concentration (IC50) was < 0.05 µM.

Turning to `COC(=O)[C@@H](NC(=O)[C@H](CC(=O)O)NC(=O)[C@H](CC(C)C)NC(=O)c1ccc2ccccc2n1)[C@@H](C)O` [Compound 170], the concentration for half-maximal inhibition (IC50) was > 10 µM.

Take `CNC(=O)[C@@H](NC(=O)[C@H](CC(=O)O)NC(=O)[C@H](CC(C)C)N(C)C(=O)CCCc1ccccc1)C(C)C` [Compound 348]: the IC50 is > 10 µM.

Turning to `Cc1ccccc1NC(=O)Nc1ccc(CC(=O)N[C@@H](CC(C)C)C(=O)N[C@@H](CCC(=O)O)C(=O)N[C@H](C(N)=O)C(C)C)cc1` [Compound 311], the half-inhibitory concentration (IC50) is < 0.05 µM.

Consider `CNC(=O)[C@@H](NC(=O)[C@H](CC(=O)O)NC(=O)[C@H](CCSC)NC(=O)Cc1ccccc1)C(C)C` [Compound 183] (HELM PEPTIDE1{[O=C(Cc1ccccc1)[*:2]].M.D.V.[CN[*:1]]}$$$$V2.0), for which the IC50 was > 10 µM.

Turning to `CC[C@H](C)[C@H](NC(=O)[C@H](CC(=O)O)NC(=O)[C@@H]1CCCN1C(=O)Cc1ccc(NC(=O)Nc2ccccc2C)cc1)C(N)=O` [Compound 244], the IC50 was < 0.05 µM.

With `CC(C)[C@H](NC(=O)[C@H](CC(=O)O)NC(=O)CCCCc1ccccc1)C(=O)O` [Compound 76], the IC50 is > 10 µM.

With `CC(C)C[C@H](NC(=O)CCC(=O)N(C)c1ccccc1)C(=O)N[C@@H](CC(=O)O)C(=O)N[C@H](C(=O)O)C(C)C` [Compound 109], the 50% inhibitory concentration (IC50) is > 10 µM.

Take `CC(C)C[C@H](NC(=O)c1ccc2ccccc2n1)C(=O)N[C@@H](CC(=O)O)C(=O)N[C@H](C(=O)N1CCN(c2ccccc2)CC1)C(C)C` [Compound 127]: the half-inhibitory concentration (IC50) is > 10 µM.

Take `COC(=O)[C@@H](NC(=O)[C@H](CC(=O)O)NC(=O)[C@H](CC(C)C)N(C)C(=O)CCc1ccccc1)C(C)C` [Compound 140] (HELM PEPTIDE1{[O=C(CCc1ccccc1)[*:2]].[meL].D.V.[CO[*:1]]}$$$$V2.0): the IC50 is > 10 µM.

For `CC(C)C[C@H](NC(=O)c1ccc2ccccc2n1)C(=O)N[C@@H](CC(=O)O)C(=O)N[C@H](C(=O)N(C)c1ccccc1)C(C)C` [Compound 121], the IC50 was > 10 µM.

For the compound `CC[C@H](C)[C@H](NC(=O)Cc1ccc(NC(=O)Nc2ccccc2C)cc1)C(=O)N[C@@H](CC(=O)O)C(=O)N[C@@H](CC(=O)O)C(N)=O` [Compound 286], the half-maximal inhibitory concentration (IC50) was < 0.05 µM.

In the case of `Cc1ccccc1NC(=O)Nc1ccc(CC(=O)N[C@@H](CO)C(=O)N[C@@H](CC(=O)O)C(=O)N[C@@H](CC(C)C)C(N)=O)cc1` [Compound 276], the concentration for half-maximal inhibition (IC50) is < 0.05 µM.

Turning to `CC(C)CNC(=O)[C@H](CC(=O)O)NC(=O)[C@H](CC(C)C)NC(=O)CCc1ccc(O)cc1` [Compound 100], the IC50 was > 10 µM.

`CC(C)C[C@H](NC(=O)c1ccc2ccccc2n1)C(=O)N[C@@H](CC(=O)O)C(=O)N[C@H](C(=O)O)C(C)C` [Compound 94]: the IC50 is > 10 µM.

As to `CC(C)[C@H](NC(=O)[C@H](CC(=O)O)NC(=O)[C@H](C)NC(=O)C1Cc2ccccc2CN1)C(=O)O` (stereo partly shown) [Compound 96] (HELM PEPTIDE1{[O=C(C1Cc2ccccc2CN1)[*:2]].A.D.V}$$$$V2.0), the half-maximal inhibitory concentration (IC50) is > 10 µM.

`COc1nc(CC(=O)N[C@@H](CC(C)C)C(=O)N[C@@H](CC(=O)O)C(=O)N[C@H](C(N)=O)C(C)C)ccc1NC(=O)Nc1ccccc1C` [Compound 3]: the IC50 is < 0.05 µM.

`CNC(=O)[C@@H](NC(=O)[C@H](CC(=O)O)NC(=O)[C@H](CC(C)C)N(C)C(=O)CCc1ccccc1)C(C)C` [Compound 182] (HELM PEPTIDE1{[O=C(CCc1ccccc1)[*:2]].[meL].D.V.[CN[*:1]]}$$$$V2.0): the 50% inhibitory concentration (IC50) was > 10 µM.

Turning to `CC(C)C[C@H](NC(=O)c1ccc2ccccc2n1)C(=O)N[C@@H](CC(=O)O)C(=O)N[C@@H](CC(=O)O)C(=O)O` [Compound 160], the IC50 was > 10 µM.

Turning to `CC(C)CNC(=O)[C@H](CC(=O)O)NC(=O)[C@H](CC(C)C)NC(=O)CCc1ccccc1` [Compound 162], the concentration for half-maximal inhibition (IC50) is > 10 µM.

Consider `COC(=O)[C@@H](NC(=O)[C@H](CC(=O)O)NC(=O)[C@H](CC(C)C)NC(=O)CCCc1ccccc1)C(C)C` [Compound 166], for which the concentration for half-maximal inhibition (IC50) was > 10 µM.

In the case of `CNC(=O)[C@@H](NC(=O)[C@H](CC(=O)O)NC(=O)[C@H](CO)NC(=O)Cc1ccccc1)C(C)C` [Compound 349] (HELM PEPTIDE1{[O=C(Cc1ccccc1)[*:2]].S.D.V.[CN[*:1]]}$$$$V2.0), the half-maximal inhibitory concentration (IC50) is > 10 µM.

For the compound `CC(C)[C@H](NC(=O)[C@H](CC(=O)O)NC(=O)OC(C)(C)C)C(=O)N1CCC[C@H]1C(=O)O` [Compound 149] (HELM PEPTIDE1{[CC(C)(C)OC(=O)[*:2]].D.V.P}$$$$V2.0), the IC50 was > 10 µM.

As for `COC(=O)[C@H](CCSC)NC(=O)[C@@H](NC(=O)[C@H](CC(=O)O)NC(=O)[C@H](CC(C)C)NC(=O)OC(C)(C)C)C(C)C` [Compound 167] (HELM PEPTIDE1{[CC(C)(C)OC(=O)[*:2]].L.D.V.M.[CO[*:1]]}$$$$V2.0), the half-inhibitory concentration (IC50) was > 10 µM.

With `CC(C)C[C@H](NC(=O)Cc1ccc(NC(=O)Nc2ccccc2)cc1)C(=O)N[C@@H](CC(=O)O)C(=O)N1CCCCC1` [Compound 218], the half-inhibitory concentration (IC50) lay in the range of 0.05 to 10 µM.

For `CCCCOC(=O)[C@@H](NC(=O)[C@H](CC(=O)O)NC(=O)[C@H](CC(C)C)NC(=O)c1ccc2ccccc2n1)[C@@H](C)O` [Compound 195], the 50% inhibitory concentration (IC50) is > 10 µM.

Turning to `CC(C)CNC(=O)[C@H](CC(=O)O)NC(=O)[C@H](CC(C)C)NC(=O)Cc1ccc(NC(=O)Nc2ccccc2)cc1` [Compound 217], the IC50 is 0.05 to 10 µM.

On to `CC[C@H](C)[C@H](NC(=O)[C@H](CC(=O)O)NC(=O)[C@@H](NC(=O)Cc1ccc(NC(=O)Nc2ccccc2C)cc1)[C@@H](C)O)C(N)=O` [Compound 255], for which the 50% inhibitory concentration (IC50) was < 0.05 µM.

For the compound `CC(C)C[C@H](NC(=O)c1ccc2ccccc2n1)C(=O)N[C@@H](CC(=O)O)C(=O)N[C@H](C(=O)NC(C)(C)C)[C@@H](C)O` [Compound 60], the IC50 is > 10 µM.

For the compound `CSCC[C@H](NC(=O)Cc1ccc(NC(=O)Nc2ccccc2C)cc1)C(=O)N[C@@H](CC(=O)O)C(=O)N[C@H](C(N)=O)C(C)C` [Compound 221], the IC50 was < 0.05 µM.

`CC(C)C[C@H](NC(=O)C1Cc2ccccc2CN1)C(=O)N[C@@H](CC(=O)O)C(=O)N[C@@H](Cc1ccccc1)C(=O)O` (stereo partly shown) [Compound 92] (HELM PEPTIDE1{[O=C(C1Cc2ccccc2CN1)[*:2]].L.D.F}$$$$V2.0): the half-inhibitory concentration (IC50) was > 10 µM.

(Values after patent US6596687B1, “Cell adhesion inhibitors” (Biogen, Inc., priority 1995, dated 2003).)
